Paper PMC5522622 (Drug delivery and translational research, 2017)
Entries after “also recorded” stand apart in the source; their conditions may differ.

Legend:
[1] = system: triple-negative murine breast cancer cell line; test: Cytotoxicity by resazurin blue assay; type: cell-based; settings: 72 h
α-MHC = α-MHC mRNA expression in RL-14 cells by real-time PCR; settings: 10 µM, 24 h
CYP1B1 [2] = settings: MROD and EROD, RL-14 cells
[3] = system: MDCK-MDR cells (P-gp positive); test: Fluorescence imaging of doxorubicin uptake by MDCK-MDR cells; type: cell-based, canine
BNP = BNP mRNA expression in RL-14 cells by real-time PCR; type: cell-based, human; settings: 10 µM, 24 h
[4] = system: human cardiomyocytes (RL-14); test: RL-14 cell viability by MTT assay; type: cell-based; settings: 10 µM, 24 h, MTT
[5] = system: reactive oxygen species in RL-14 cells; test: Reactive oxygen species levels by DCF assay in RL-14 cells; type: cell-based, human; settings: 10 µM, 24 h
GST-A1 = GST-A1 mRNA expression in RL-14 cells by real-time PCR; type: cell-based, human; settings: 10 µM, 24 h
adult rat cardiomyocytes = test: Adult rat cardiomyocyte viability by trypan blue assay; type: cell-based; settings: 18 h; for cell death: 10 µM, trypan blue; for cell death, concentration dependence: 1, 5 and 10 µM
CYP3A4 = CYP3A4 (Homo sapiens, UniProt P08684)
CYP3A4, sequence (P08684 whole entry): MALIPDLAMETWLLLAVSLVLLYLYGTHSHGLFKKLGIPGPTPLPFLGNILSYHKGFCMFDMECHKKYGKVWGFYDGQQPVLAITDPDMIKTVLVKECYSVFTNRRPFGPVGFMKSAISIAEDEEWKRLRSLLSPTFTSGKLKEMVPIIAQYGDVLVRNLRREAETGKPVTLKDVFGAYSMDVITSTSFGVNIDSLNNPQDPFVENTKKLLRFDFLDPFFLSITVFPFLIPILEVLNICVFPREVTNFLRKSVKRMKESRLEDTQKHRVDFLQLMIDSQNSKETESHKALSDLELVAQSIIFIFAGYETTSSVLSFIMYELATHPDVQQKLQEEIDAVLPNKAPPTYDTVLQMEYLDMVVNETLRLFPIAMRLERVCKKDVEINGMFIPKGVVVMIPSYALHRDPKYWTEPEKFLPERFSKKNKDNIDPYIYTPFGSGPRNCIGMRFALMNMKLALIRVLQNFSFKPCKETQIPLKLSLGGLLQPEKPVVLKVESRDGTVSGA

CYP1B1 [6] = settings: RL-14 cells
[7] = In vitro drug release of DoxQ in PBS with 10% FBS at 37 °C, HPLC; type: in vitro ADME
β-MHC = β-MHC mRNA expression in RL-14 cells by real-time PCR; settings: 10 µM, 24 h
Water solubility = type: physicochemical; settings: stated in words, no test described
[8] = RL-14 cell viability by MTT assay; type: cell-based, human; settings: human, RL-14 cardiomyocyte cells
HO-1 = HO-1 mRNA expression in RL-14 cells by real-time PCR; type: cell-based, human; settings: 10 µM, 24 h

COc1cccc2c1C(=O)c1c(O)c3c(c(O)c1C2=O)CC(O)(C(=O)CO)CC3OC1CC(NC(=O)CNC(=O)Oc2ccc(-c3oc4cc(O)cc(O)c4c(=O)c3O)cc2O)C(O)C(C)O1 (stereo not shown) [DoxQ, quercetin-Gly-Dox]
IC50 relative to doxorubicin alone or a mixture of doxorubicin and quercetin [1]: more than twofold higher | cytotoxicity compared to doxorubicin or mixture [1]: substantially less toxic | IC50 ([1]; given in words): micromolar range | inhibition of induction of α-MHC mRNA expression compared to doxorubicin (α-MHC): 1.5 folds | CYP1B1 catalytic activity, in words (CYP1B1 [2]): significantly inhibited; also recorded: reversed these effects | fluorescence signal in cells compared to free doxorubicin ([3]; 50 nM, Fig. 4): higher | drug uptake (fluorescence signal, ImageJ) compared to free doxorubicin ([3]; after 5-min treatment, Fig. 5a): significantly enhanced | inhibition of induction of BNP mRNA expression compared to doxorubicin (BNP): 6 folds | cell viability [4]: 77% | prevention of the cytotoxicity mediated by doxorubicin [4]: ~ 25% | difference in ROS level versus free doxorubicin [5]: ~ 234% | lowering of GST-A1 mRNA expression in comparison to doxorubicin (GST-A1): 1.5 folds | cell death (adult rat cardiomyocytes): ~ 17% | cell death, concentration dependence (adult rat cardiomyocytes): dose-response effect | CYP3A4 inhibition (percentage relative to ketoconazole), in words (CYP3A4; 0.01, 0.1, 1, 10, 50 and 100 µM): inhibited CYP3A4 at all the concentrations tested | concentration with the highest CYP3A4 inhibition (CYP3A4; range tested 0.01-100 µM): 10 nM | CYP1B1 mRNA expression, in words (CYP1B1 [6]): reversed these effects | inhibition of CYP1B1 mRNA expression compared to doxorubicin (CYP1B1 [6]; Fig. 15a): more than 4 folds | antioxidant capacity compared to quercetin alone (Antioxidant assay kit; 1 and 10 mM): significantly higher | antioxidant capacity compared to a mixture of doxorubicin and quercetin (Antioxidant assay kit; 10 and 50 mM): significantly higher | antioxidant effect compared to doxorubicin (Antioxidant assay kit; all concentrations studied (1, 10, 50)): significantly higher | duration of in vitro release of doxorubicin from the conjugate ([7]; Fig. 3): more than 4 days | release t1/2 of quercetin from the conjugate ([7]; aqueous medium, second-order kinetics): approximately 100 h | inhibition of induction of β-MHC mRNA expression compared to doxorubicin (β-MHC): 2.5 folds | water solubility (Water solubility): very poor

COc1cccc2c1C(=O)c1c(O)c3c(c(O)c1C2=O)C[C@@](O)(C(=O)CO)C[C@@H]3O[C@H]1C[C@H](N)[C@H](O)[C@H](C)O1 [doxorubicin, Doxorubicin, reference compound]
α-MHC mRNA expression versus control, in words (α-MHC): induced | CYP1B1 catalytic activity, in words (CYP1B1 [2]): induced | BNP mRNA expression versus control, in words (BNP): induced | viability at 24 h, 10 µM [8]: 52% | cell death (adult rat cardiomyocytes): ~ 22% | cell death, concentration dependence (adult rat cardiomyocytes): dose-response effect | CYP1B1 mRNA expression, in words (CYP1B1 [6]): induced | HO-1 expression lower compared to cells treated with DoxQ (HO-1): 1 fold | β-MHC mRNA expression versus control, in words (β-MHC): induced
